The source of these data is patent publication US8637484B2, “Modulation of growth hormone receptor expression and insulin-like growth factor expression” (Antisense Therapeutic Limited, priority 2003, dated 2014).

One series relates to growth hormone receptor. Briefly: [125I] hGH specific binding assay on liver microsomal membranes of treated mice. It counts as in vivo, mouse. The method, then: Specific binding assays were carried out with liver tissue using iodinated human growth hormone [^125I] hGH.
Microsomal membrane preparations were obtained as follows. 400 mg of tissue powder was homogenized in cold homogenizing buffer (50 mM Tris/HCl, 250 mM sucrose, pH 7.4). This was centrifuged at 2000 rpm for 10 min at 3° C. and the supernatant was saved. This was centrifuged again at 15,000 rpm for 20 min. Pellets were resuspended in 0.5 ml of RRA buffer with inhibitor (50 mM Tris, 20 mM MgC12, pH 7.4). Microsomal preparation samples were stored at −80° C. until the specific binding assay.
The [^125I] hGH specific binding assay was done as follows. Four glass tubes were set up for each sample, two for (−), two for (+). Different sample and solutions were added in each tube as follows (i) 0.2 ml RRA buffer (50 mM Tris, 20 mM MgCl2, 0.1% BSA, pH 7.4); (ii) 0.1 ml membrane (1/2 or 1/4 dilution); (iii) 0.1 ml bGH (10 μg/ml) for the (+) tube or 0.1 ml RRA buffer for the (−) tube; and (iv) 0.1 ml [^125I]-hGH tracer.
Samples were incubated at 4° C. with shaking overnight. The reaction was stopped with 2.5 ml of cold RRA, and the sample centrifuged at 2800 rpm for 25 min at 4° C. Supernatant was aspirated and pellets counted using the γ-counter. The specific binding capacity was calculated as: CPM(−)-CPM(+) Protein content of the microsomal samples was determined by the BCA protein assay.

Series [1] concerns blood vessel profiles (BVPs) in the inner retina. The series can be described thus: Oxygen-induced retinopathy (ROP) in mice, blood vessel profiles in the inner retina. The format is in vivo, mouse. The method, then:
Oxygen-induced retinopathy (also called retinopathy of prematurity or ROP) in laboratory animals is a widely used model for the study of retinal microvascular complications. Wilkinson-Berka et al., 2003, Invest. Opthalmol. V is Sci. 44, 974; Morayski, C. et al., 2000, Hypertension, 36,1099-1104.
To produce ROP, seven-day-old mice were placed in an infant incubator with their nursing mother in 75% oxygen from postnatal day 7 to day 12 as described in the literature. Smith et al., 1994, Invest Ophthalmol V is Sci 35, 101-111; Robinson et al., Proc Natl Acad Sci USA., 1996, May 14; 93, 4851-6. On postnatal day 12, the animals were returned to room air. Animals were sacrificed on postnatal day 17 when maximal neovascularization is observed. Sham-treated animals are handled similarly but are maintained in room air at all times.
Mice were dosed with antisense oligonucleotide in saline (total volume […]) at postnatal days 12, 13, 14, 15, and 16 or days 7, 8, 9, 11, 13, 15 and 17. Oligonucleotide was administered intraperitoneally at concentrations of 5, 10, 20 and 30 mg/kg. The mismatch control ISIS 261303 is also given.
Blood vessel profiles (BVPs) in the inner retina are quantitated in eyes from 36 experimental groups. Each group contains 8 retina from 8 different mice. Tables 7, 8 and 9 indicate 1) from which groups eyes have been collected to date for sectioning and 2) how many animals have had BVPs quantitated to date in each experimental group.
“Early intervention” (“Early I” in Tables 8-10) is used to describe mice pups that have been administered agents at postnatal days 7, 8, 9, 11, 13, 15 and 17 (7 doses). “Late intervention” (“Late I” in Tables 7-10) is used to describe mice pups administered agents at postnatal days 12, 13, 14, 15 and 16 (5 doses). All treatments were by intraperitoneal injection. Counting of blood vessel profiles (BVPs) in the inner retina is performed in a masked manner by investigators blinded to the experimental groups.

Setting [2] is: 30 mg/kg every second day for one week, liver membranes.

Marks after values point to notes of the source that are not given here. In the oligonucleotide strings, read from the 5' end, every base follows the letter of its sugar. An asterisk marks phosphorothioate; unmarked linkages are phosphodiester. Other units and linkages are bracketed, terminal groups are in braces. A string of capitals states the bases alone. e = 2'-O-(2-methoxyethyl) (MOE); [5mC] = 5-methylcytosine; d = 2'-deoxy (DNA)

With “acaaagatccatacctgaga (eA*e[5mC]*eA*eA*eA*dG*dA*dT*d[5mC]*d[5mC]*dA*dT*dA*d[5mC]*d[5mC]*eT*eG*eA*eG*eA; antisense) [ISIS 227446]”, the “reduction of specific binding compared to saline, ¼ dilution” value with growth hormone receptor (30 mg/kg) is listed as 39%. Moreover, the “reduction of specific binding compared to saline, ½ dilution” value in the series on growth hormone receptor (30 mg/kg) stood at 26%. Also, the “Specific binding/mg protein (cpm) ¼ dilution” value with growth hormone receptor (setting [2]) came to 5546 ± 789 cpm. For the same substance, the “Specific binding/mg protein (cpm) ½ dilution” value with growth hormone receptor (setting [2]) turned out to be 4205 ± 534 cpm. The “growth hormone receptor levels (growth hormone binding activity), % of control (saline) group” value with growth hormone receptor (30 mg/kg sc every second day for one week) was 61%. Further, the “growth hormone receptor levels, % of the control (mismatch) group” value with growth hormone receptor (30 mg/kg, ½ dilution experiment) is listed as 59%. Also, the “Average # BVPs” value in series [1] (ROP + 5 mg/kg ip, Early I) is recorded as 28.25; in series [1] (ROP + 5 mg/kg ip, Late I) it was 25.19; in series [1] (ROP + 10 mg/kg ip, Early I), 23.18; in series [1] (ROP + 30 mg/kg ip, Late I) it was 24.24; in series [1] (Sham + 20 mg/kg ip, Early I (postnatal days 7, 8, 9, 11, 13, 15, 17)), 9.97*; in series [1] (Sham + 30 mg/kg ip, Early I) it was 10.94*. Besides, in series [1] (Sham + 30 mg/kg ip, Late I (postnatal days 12-16)), the “Average # BVPs” value is 11.25*. In series [1] (early intervention), the “effect on blood vessel profiles in sham-treated (no retinopathy) mice” value is reported as “no effect”.
